The values that follow come from publication PMC5926202, “Creation of a nanoformulated cabotegravir prodrug with improved antiretroviral profiles” (Biomaterials, 2017).

≈ marks a conversion by molar mass, not a printed value.

By IC50 is commonly meant the concentration that inhibits the measured activity by half. Broadly, the solubility is the dissolved amount per volume that the medium holds. A high value points to a readily soluble substance.

One data set relates to HIV. The note with it: cited from earlier work.
For data set [1], the system named is HIV-1ADA in human monocyte derived macrophages (MDM). The data set is described as follows: Antiretroviral activity of CAB and MCAB in HIV-1ADA infected MDM (HIV RT activity). The note with it: Human immunodeficiency virus 1, 168 h, HIV-1ADA MOI 0.1, MDM, 7 days after challenge. It counts as cell-based.
Method: (E) Antiretroviral activities of CAB and MCAB were evaluated in HIV-1ADA infected human monocyte derived macrophages (MDM). Inhibition rate was presented as percentage of reduced HIV reverse transcriptase (RT) activity as compared to positive control RT activity. Nonlinear regression was performed using log (drug concentration) vs. Inhibition rate with variable slope, and drug concentration for 50% inhibition (IC50) was calculated. […] Data are expressed as mean ± SD for n= 6 samples per group.
Monocyte-derived macrophages (MDM) were utilized. […] Briefly, monocytes were obtained by leukapheresis of HIV-1/2 and hepatitis B seronegative donor blood cells, followed by purification via countercurrent centrifugal elutriation. Elutriated monocytes were cultured as adherent cells in DMEM supplemented with 10% heat-inactivated pooled human serum, 10 µg/mL ciprofloxacin, 50 µg/mL gentamicin, and 1000 U/mL recombinant macrophage colony stimulating factor. Cells were maintained at 37 °C in a 5% CO2 incubator. Seven days later, differentiated macrophages were treated with various concentrations (0.06–1000 nM) of native CAB or MCAB for 30 min, followed by HIV-1ADA challenge at a multiplicity of infection (MOI) of 0.1 infectious viral particles/cell. […]
A short description of data set [2]: Solubility test in water and 1-octanol. It counts as physicochemical. The note with it: room temperature; for solubility at 24 h: water, thermodynamic from solid, 24 h mixing. As for the experimental part:
The solubilities of CAB and MCAB in water and 1-octanol were determined by adding excess drug to each solution at room temperature then mixing for 24 h. Samples were centrifuged at 20,000 × g for 10 min to pellet insoluble drug. The supernatants containing solubilized drug were vacuum-dried then re-dispersed in methanol for drug concentration measurement using a Waters ACQUITY ultra performance liquid chromatography (UPLC) H-Class System with TUV detector and Empower 3 software (Milford, MA, USA). […] Drug content was quantitated by comparison of peak area to those of known standards (0.05–50 µg/mL in methanol).

The conditions of data set [3]: long-acting parenteral; cited from earlier work.

Turning to `C[C@H]1CO[C@@H]2Cn3cc(C(=O)NCc4ccc(F)cc4F)c(=O)c(O)c3C(=O)N12` [CAB, cabotegravir], the “4 × PA-IC90” value in the data set with HIV (4 times protein-binding-adjusted 90% inhibitory concentration ref 19-22) was 0.66 µg/mL. The PA-IC90 with HIV (protein-binding-adjusted ref 24) was 0.166 µg/mL. Besides, the IC50 in data set [1] was 2.5 nM. In data set [2], the solubility at 24 h amounted to 31.9 ± 14.4 µg/mL (≈ 78.7 µM). For the same molecule, the half-life entry in data set [3] is on record as “up to 54 days”.
Turning to `CCCCCCCCCCCCCC(=O)Oc1c2n(cc(C(=O)NCc3ccc(F)cc3F)c1=O)CC1OCC(C)N1C2=O` (centres unmarked) [MCAB], in data set [1], half-maximal inhibition (IC50) was put at 3.4 nM. For the same molecule, in data set [2], the “increase in 1-octanol solubility compared to CAB” value is 30 fold and the concentration in solution (solubility at 24 h) came to 5.6 ± 1.8 µg/mL (≈ 9.1 µM).
